System: rSARS-COV-2/YS006_Nluc P2 virus (YS006_spike)
Assay type: cell-based, SARS coronavirus 2

CC(C)(C)[C@H](NC(=O)C(F)(F)F)C(=O)N1C[C@H]2[C@@H]([C@H]1C(=O)N[C@H](C#N)C[C@@H]1CCNC1=O)C2(C)C [PF-07321332]
antiviral activity against YS006_spike reporter virus: high antiviral activity
inhibitory effect compared among cell lines (A549_ACE2 cells versus Calu-3 and Vero E6, FIG. 6B): strongest inhibitory effect

— US20260071190A1, “SARS CORONAVIRUS 2 R[…] […] GENES, DERIVED FROM GH CLADE SARS CORONAVIRUS 2 OF KOREAN ISOLATE, AND THE PRODUCTION METHOD THEREFOR” (RpexBio, Inc., priority 2022, published 2026)
